Measured values published in PMC6153936, “Bisarylureas Based on 1H-Pyrazolo[3,4-d]pyrimidine Scaffold as Novel Pan-RAF Inhibitors with Potent Anti-Proliferative Activities: Structure-Based Design, Synthesis, Biological Evaluation and Molecular Modelling Studies” (Molecules : A Journal of Synthetic Chemistry and Natural …, 2017).

Assays:
[1] = test system: A375 cell line; experiment: Flow cytometric analysis of cell cycle distribution; type: cell-based, human; conditions: for G0/G1 (%) / G2/M (%) / S (%) / Sub-G1 (%): 48 h
Description: The effect of compound 1v on cell cycle phase distribution of human malignant melanoma A375 was assessed using flow cytometry. When the cells grew to about 70% confluence in 6-well microplates, they were treated with compound 1v at given concentrations (6.11 μmol/L, 12.21 μmol/L, 24.42 μmol/L). After 48 h, cells were harvested by trypsinization, washed with PBS, and fixed in 70% ice cold (4 °C) ethanol overnight. They were then washed with PBS, incubated with Ribonuclease (RNase) ([…] final concentration) at 37 °C for 30 min, stained with propidium iodide ([…] final concentration), and analyzed by flow cytometry (BD FACS Canto II, BD Biosciences, San Jose, CA, USA).

[2] = target: ALK (Homo sapiens, UniProt Q9UM73); experiment: Kinase selectivity profile; type: biochemical
[3] = test system: PC-3; experiment: MTT anti-proliferative assay, PC-3; type: cell-based, human; conditions: Homo sapiens, PC-3; MTT, 48 h
Description: (§2) All cell lines were purchased from Cell Bank of China Science Academy (Shanghai, China). All chemicals and solvents were purchased from Sigma-Aldrich (St. Louis, MO, USA) or Gibco (Gibco BRL, Grand Island, NY, USA). The PC-3 and A375 cell lines was maintained in Dulbecco's modified eagle (DEME) medium supplement with 10% fetal bovine serum (FBS) and 1% penicillin–streptomycin. The others were cultured in Roswell Park Memorial Institute (RPMI) 1640 medium supplement with 10% fetal bovine serum (FBS) and 1% penicillin–streptomycin. Approximately 5 × 10^3 cells, suspended in medium, were plated into each well of a 96-well plate and grown at 37 °C in a humidified atmosphere with 5% CO2 for 24 h. The following day, various concentrations of tested compounds were added to the culture medium and incubated for 48 h. Fresh MTT was added to each well at the terminal concentration of 5 mg/mL in phosphate buffered saline (PBS), and incubated with cells at 37 °C for 4 h. The formazan crystals in each well were dissolved in 150 μL DMSO, and the absorbency at 570 nm was measured with an enzyme-linked immunosorbent assay plate reader. All of the compounds were tested three times in each of the cell lines.

[4] = target: ABL1 (Homo sapiens, UniProt P00519); experiment: Kinase selectivity profile; type: biochemical
[5] = target: MST1R (RON) (Homo sapiens, UniProt Q04912); experiment: Kinase selectivity profile; type: biochemical
[6] = target: EGFR (ErbB1) (Homo sapiens, UniProt P00533); experiment: Kinase selectivity profile; type: biochemical
EGFR (ErbB1), sequence (P00533 25-1210): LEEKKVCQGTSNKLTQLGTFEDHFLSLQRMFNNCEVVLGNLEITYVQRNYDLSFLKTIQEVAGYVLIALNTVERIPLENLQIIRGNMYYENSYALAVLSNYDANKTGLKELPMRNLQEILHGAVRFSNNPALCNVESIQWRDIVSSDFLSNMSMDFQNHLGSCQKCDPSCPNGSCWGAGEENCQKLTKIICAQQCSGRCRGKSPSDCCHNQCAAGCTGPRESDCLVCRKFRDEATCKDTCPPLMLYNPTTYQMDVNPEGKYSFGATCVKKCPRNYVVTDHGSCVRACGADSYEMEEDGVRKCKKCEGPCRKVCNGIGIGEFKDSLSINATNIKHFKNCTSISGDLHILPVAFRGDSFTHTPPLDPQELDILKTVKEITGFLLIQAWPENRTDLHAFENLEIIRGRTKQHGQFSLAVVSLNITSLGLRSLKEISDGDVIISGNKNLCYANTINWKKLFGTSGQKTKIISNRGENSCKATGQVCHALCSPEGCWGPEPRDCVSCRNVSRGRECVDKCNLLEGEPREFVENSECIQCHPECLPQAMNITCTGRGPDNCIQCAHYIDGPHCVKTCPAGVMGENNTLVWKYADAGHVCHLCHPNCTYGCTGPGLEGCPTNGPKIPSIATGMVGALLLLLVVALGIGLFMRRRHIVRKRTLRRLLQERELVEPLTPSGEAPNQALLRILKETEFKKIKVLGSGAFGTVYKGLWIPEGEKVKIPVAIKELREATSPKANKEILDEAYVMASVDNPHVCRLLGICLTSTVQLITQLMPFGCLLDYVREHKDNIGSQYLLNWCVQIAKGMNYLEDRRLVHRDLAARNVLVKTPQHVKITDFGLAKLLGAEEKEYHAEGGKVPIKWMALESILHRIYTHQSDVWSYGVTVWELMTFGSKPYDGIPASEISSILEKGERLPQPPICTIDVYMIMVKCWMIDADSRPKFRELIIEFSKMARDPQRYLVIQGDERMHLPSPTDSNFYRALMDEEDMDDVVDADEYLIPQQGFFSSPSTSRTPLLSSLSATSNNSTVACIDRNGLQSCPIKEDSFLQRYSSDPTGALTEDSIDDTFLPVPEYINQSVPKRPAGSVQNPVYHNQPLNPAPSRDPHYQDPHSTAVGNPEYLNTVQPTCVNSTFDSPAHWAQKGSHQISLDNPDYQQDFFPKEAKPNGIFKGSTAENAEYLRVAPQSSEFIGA

[7] = test system: A549; experiment: MTT anti-proliferative assay, A549; type: cell-based, human; conditions: Homo sapiens, A549; MTT, 48 h
Description: as §2

[8] = target: T1, BRAF^V600E (Homo sapiens, UniProt P15056, V600E); experiment: BRAF^V600E kinase inhibition, Z'-LYTE; type: biochemical
T1 construct: purchased Life Technologies
T1 sequence (P15056 whole entry V600E): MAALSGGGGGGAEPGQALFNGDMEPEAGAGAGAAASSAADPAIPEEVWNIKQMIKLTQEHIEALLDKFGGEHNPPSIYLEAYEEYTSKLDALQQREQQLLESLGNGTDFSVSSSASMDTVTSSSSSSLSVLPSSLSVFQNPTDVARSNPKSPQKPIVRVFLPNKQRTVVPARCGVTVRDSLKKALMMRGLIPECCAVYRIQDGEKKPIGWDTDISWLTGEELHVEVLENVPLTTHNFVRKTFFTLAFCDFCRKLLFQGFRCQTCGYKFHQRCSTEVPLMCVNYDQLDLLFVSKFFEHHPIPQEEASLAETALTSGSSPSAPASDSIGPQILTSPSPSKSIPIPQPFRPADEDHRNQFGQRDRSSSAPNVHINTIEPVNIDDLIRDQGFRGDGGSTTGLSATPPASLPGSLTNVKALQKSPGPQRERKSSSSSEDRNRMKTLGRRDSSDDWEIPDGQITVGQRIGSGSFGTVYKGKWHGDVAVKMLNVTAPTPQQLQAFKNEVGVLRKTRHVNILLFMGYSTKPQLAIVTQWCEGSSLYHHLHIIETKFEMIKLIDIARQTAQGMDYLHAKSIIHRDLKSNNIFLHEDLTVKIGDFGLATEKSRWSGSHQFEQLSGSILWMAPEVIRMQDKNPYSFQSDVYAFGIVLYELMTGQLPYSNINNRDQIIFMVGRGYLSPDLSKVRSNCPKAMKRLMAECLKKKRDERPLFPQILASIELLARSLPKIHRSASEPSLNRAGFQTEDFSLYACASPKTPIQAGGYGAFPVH
Description: The experiments were performed according to the instructions of the manufacturer, and single point concentration testing with two independent data points (n = 2). […] The IC50 values were calculated from the inhibition curves from two separate experiments.

[9] = target: BRAF (wt) (Homo sapiens, UniProt P15056); experiment: Kinase selectivity profile; type: biochemical
BRAF (wt), sequence (P15056 whole entry): as the sequence (P15056 whole entry V600E) above, with E600V counted along it

[10] = target: FLT4 (VEGFR3) (Homo sapiens, UniProt P35916); experiment: Kinase selectivity profile; type: biochemical
[11] = target: PTK2 (FAK) (Homo sapiens, UniProt Q05397); experiment: Kinase selectivity profile; type: biochemical
PTK2 (FAK), sequence (Q05397 whole entry): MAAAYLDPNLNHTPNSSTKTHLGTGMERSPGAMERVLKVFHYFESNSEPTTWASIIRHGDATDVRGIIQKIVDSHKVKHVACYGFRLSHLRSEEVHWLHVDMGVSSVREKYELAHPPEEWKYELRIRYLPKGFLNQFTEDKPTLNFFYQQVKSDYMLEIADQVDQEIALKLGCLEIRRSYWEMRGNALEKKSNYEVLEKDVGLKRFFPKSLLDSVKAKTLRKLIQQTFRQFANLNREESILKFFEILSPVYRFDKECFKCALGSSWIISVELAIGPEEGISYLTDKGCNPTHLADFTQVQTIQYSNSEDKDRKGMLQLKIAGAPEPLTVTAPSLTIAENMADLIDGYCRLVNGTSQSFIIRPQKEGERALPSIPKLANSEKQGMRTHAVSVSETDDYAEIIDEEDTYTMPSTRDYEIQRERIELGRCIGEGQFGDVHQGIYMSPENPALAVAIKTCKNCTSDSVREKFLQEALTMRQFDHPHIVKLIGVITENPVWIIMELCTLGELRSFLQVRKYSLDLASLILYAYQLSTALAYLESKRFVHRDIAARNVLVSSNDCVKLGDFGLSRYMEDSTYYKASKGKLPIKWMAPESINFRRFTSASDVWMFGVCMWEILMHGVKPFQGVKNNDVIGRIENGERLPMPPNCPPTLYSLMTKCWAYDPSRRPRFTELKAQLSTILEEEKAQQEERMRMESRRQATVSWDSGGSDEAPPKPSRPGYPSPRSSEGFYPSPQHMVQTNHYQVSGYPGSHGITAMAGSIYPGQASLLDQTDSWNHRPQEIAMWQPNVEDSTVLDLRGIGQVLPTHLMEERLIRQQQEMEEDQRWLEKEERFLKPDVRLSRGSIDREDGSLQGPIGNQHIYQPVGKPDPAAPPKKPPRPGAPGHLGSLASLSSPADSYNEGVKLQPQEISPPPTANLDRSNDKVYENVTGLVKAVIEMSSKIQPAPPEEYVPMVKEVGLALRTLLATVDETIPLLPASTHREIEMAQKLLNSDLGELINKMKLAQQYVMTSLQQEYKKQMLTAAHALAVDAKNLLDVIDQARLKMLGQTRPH

[12] = target: FLT1 (VEGFR1) (Homo sapiens, UniProt P17948); experiment: Kinase selectivity profile; type: biochemical
[13] = target: MET (c-Met) (Homo sapiens, UniProt P08581); experiment: Kinase selectivity profile; type: biochemical
[14] = target: VEGFR-2 (Homo sapiens, UniProt P35968); experiment: Kinase selectivity profile; type: biochemical
VEGFR-2, sequence (P35968 20-1356): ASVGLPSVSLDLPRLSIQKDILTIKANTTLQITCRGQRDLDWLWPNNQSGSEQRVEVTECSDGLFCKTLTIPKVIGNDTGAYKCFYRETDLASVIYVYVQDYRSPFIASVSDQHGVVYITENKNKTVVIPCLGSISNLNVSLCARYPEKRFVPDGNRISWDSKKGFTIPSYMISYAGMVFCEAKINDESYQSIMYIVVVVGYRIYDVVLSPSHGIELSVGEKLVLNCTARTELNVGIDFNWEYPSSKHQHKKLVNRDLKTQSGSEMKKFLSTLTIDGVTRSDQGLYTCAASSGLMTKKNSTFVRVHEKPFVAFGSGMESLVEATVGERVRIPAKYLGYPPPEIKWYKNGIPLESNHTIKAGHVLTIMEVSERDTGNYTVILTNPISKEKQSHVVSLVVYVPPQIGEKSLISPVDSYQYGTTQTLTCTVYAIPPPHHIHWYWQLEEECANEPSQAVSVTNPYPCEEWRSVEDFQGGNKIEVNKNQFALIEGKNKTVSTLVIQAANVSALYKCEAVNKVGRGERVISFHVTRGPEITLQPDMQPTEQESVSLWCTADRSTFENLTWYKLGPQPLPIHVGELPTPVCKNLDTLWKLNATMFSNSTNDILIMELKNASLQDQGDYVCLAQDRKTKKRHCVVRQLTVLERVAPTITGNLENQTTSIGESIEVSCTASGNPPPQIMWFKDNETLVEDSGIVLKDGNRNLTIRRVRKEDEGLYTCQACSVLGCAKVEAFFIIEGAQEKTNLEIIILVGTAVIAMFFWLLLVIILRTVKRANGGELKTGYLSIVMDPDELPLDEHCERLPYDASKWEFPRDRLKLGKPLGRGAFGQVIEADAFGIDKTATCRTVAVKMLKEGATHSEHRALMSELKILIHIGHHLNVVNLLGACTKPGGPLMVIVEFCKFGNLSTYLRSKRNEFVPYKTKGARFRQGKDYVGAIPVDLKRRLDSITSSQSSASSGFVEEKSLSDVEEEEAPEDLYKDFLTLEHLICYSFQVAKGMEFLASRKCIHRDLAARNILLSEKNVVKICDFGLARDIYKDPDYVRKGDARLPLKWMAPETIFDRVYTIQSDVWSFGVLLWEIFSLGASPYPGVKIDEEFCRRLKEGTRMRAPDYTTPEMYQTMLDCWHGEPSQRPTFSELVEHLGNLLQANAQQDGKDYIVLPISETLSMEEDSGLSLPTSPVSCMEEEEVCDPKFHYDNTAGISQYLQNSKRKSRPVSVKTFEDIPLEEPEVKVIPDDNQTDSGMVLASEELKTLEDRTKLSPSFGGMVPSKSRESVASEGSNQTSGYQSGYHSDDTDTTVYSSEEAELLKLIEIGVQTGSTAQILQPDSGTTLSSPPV

[15] = target: LTK (TYK1) (Homo sapiens, UniProt P29376); experiment: Kinase selectivity profile; type: biochemical
[16] = test system: A375; experiment: MTT anti-proliferative assay, A375; type: cell-based; conditions: Homo sapiens, A-375, 48 h
Description: as §2

[17] = test system: phosphor-MEK protein in A375 cell line; experiment: Western blot of phosphor-MEK, A375; type: cell-based, human; conditions: A375, 48 h treatment
Description: (§1) Total cells were harvested after treatment, washed twice with cold PBS, and lysed with RIPA lysis buffer (KeyGEN BioTECH, Nanjing, China) including 1% cocktail (Selleck Chemicals, Houston, TX, USA). Lysates were centrifuged at 12,000× g at 4 °C for 15 min, and the supernatant was collected. Total protein concentration was quantified using the bicinchoninic acid (BCA; Beyotime Institute of Biotechnology, Nanjing, China) protein assay kit (Sigma Chemical Co., St. Louis, MO, USA). The proteins were separated electrophoretically using 10% sodium dodecyl sulfate polyacrylamide gel electrophoresis (SDS-PAGE) and then the gel was transferred onto polyvinylidene fluoride (PVDF; Millipore, Billerica, MA, USA) membranes. […] The immunobands were detected with an enhanced chemiluminescence kit (Beyotime Institute of Biotechnology, Nanjing, China).

[18] = target: ErbB2 (HER2) (Homo sapiens, UniProt P04626); experiment: Kinase selectivity profile; type: biochemical
[19] = test system: phosphor-MEK protein in HT-29 cell line; experiment: Western blot of phosphor-MEK, HT-29; type: cell-based, human; conditions: HT-29, 48 h treatment
Description: as §1

[20] = target: AURKA (Aurora A) (Homo sapiens, UniProt O14965); experiment: Kinase selectivity profile; type: biochemical
[21] = target: LCK (Homo sapiens, UniProt P06239); experiment: Kinase selectivity profile; type: biochemical
[22] = target: AURKB (Aurora B) (Homo sapiens, UniProt Q96GD4); experiment: Kinase selectivity profile; type: biochemical
AURKB (Aurora B), sequence (Q96GD4 whole entry): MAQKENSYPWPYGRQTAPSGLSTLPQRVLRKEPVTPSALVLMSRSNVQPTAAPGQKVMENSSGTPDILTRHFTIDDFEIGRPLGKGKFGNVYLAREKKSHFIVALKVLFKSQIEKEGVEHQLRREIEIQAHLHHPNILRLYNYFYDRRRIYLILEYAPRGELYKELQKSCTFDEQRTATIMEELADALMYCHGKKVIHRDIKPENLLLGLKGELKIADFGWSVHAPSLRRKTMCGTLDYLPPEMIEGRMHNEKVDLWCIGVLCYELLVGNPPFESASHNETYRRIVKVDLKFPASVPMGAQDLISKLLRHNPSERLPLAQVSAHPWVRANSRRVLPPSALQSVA

[23] = target: ErbB4 (HER4) (Homo sapiens, UniProt Q15303); experiment: Kinase selectivity profile; type: biochemical
[24] = target: RAF1 (CRAF) (Homo sapiens, UniProt P04049); experiment: Kinase selectivity profile; type: biochemical
RAF1 (CRAF), sequence (P04049 342-648 limits assumed): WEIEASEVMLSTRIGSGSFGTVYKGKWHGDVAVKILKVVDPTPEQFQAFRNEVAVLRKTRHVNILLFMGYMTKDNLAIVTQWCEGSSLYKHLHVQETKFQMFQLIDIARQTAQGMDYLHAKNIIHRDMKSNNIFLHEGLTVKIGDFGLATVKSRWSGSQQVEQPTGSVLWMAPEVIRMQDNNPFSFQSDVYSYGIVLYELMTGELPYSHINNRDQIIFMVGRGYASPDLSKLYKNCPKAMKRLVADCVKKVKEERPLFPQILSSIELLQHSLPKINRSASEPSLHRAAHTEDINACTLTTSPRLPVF

[25] = target: EPHA2 (Homo sapiens, UniProt P29317); experiment: Kinase selectivity profile; type: biochemical
[26] = target: ABL2 (Arg) (Homo sapiens, UniProt P42684); experiment: Kinase selectivity profile; type: biochemical
[27] = MTT cytotoxic assay, normal cell line MDCK; conditions: dog, MDCK cells (normal cell line)
Description: as §2

[28] = test system: HT-29; experiment: MTT anti-proliferative assay, HT-29; type: cell-based; conditions: Homo sapiens, 48 h
Description: as §2

Cn1ncc2c(Oc3ccc(NC(=O)Nc4ccc(Cl)c(C(F)(F)F)c4)cc3)ncnc21 [Compound 1v, 1-(4-Chloro-3-(trifluoromethyl)phenyl)-3-(4-((1-methyl-1H-pyrazolo[3,4-d]pyrimidin-4-yl)oxy)phenyl)urea]
G0/G1 (%) ([1]; A375, 6.11 μmol/L): 42.53%
G2/M (%) ([1]; A375, 6.11 μmol/L): 10.94%
S (%) ([1]; A375, 6.11 μmol/L): 38.25%
Sub-G1 (%) ([1]; A375, 6.11 μmol/L): 4.39%
G0/G1 (%) ([1]; A375, 12.21 μmol/L): 47.94%
G2/M (%) ([1]; A375, 12.21 μmol/L): 7.39%
S (%) ([1]; A375, 12.21 μmol/L): 38.13%
Sub-G1 (%) ([1]; A375, 12.21 μmol/L): 2.12%
G0/G1 (%) ([1]; A375, 24.42 μmol/L): 52.73%
G2/M (%) ([1]; A375, 24.42 μmol/L): 5.48%
S (%) ([1]; A375, 24.42 μmol/L): 36.19%
Sub-G1 (%) ([1]; A375, 24.42 μmol/L): 5.48%
effect on cell cycle progression ([1]; A375, 48 h, G0/G1 phase): dose-dependent cell cycle arrest
Inhibition % at 1 μΜ, ALK [2]: 7%
IC50 [3]: 23.4 µM
Inhibition % at 1 μΜ, ABL1 [4]: 5%
Inhibition % at 1 μΜ, MST1R (RON) [5]: −2%
Inhibition % at 1 μΜ, EGFR (ErbB1) [6]: 8%
IC50 [7]: 12.5 µM
inhibition at 0.1 µM ([8]; 100 nM, average of two independent experiments): 81%
inhibition at 1 µM ([8]; 1000 nM, average of two independent experiments): 97%
IC50 ([8]; ten concentrations 1000 to 0.0508 nM, two independent experiments): 0.0236 µM
Inhibition % at 1 μΜ, BRAF (wt) ([9]; 1 μΜ): 105%
IC50 ([9]; in parentheses in Table 4, read-out: wild-type BRAF IC50): 0.0515 µM
Inhibition % at 1 μΜ, FLT4 (VEGFR3) [10]: 58%
Inhibition % at 1 μΜ, PTK2 (FAK) [11]: 13%
Inhibition % at 1 μΜ, FLT1 (VEGFR1) [12]: 31%
Inhibition % at 1 μΜ, MET (c-Met) [13]: 6%
Inhibition % at 1 μΜ, VEGFR-2 [14]: 56%
Inhibition % at 1 μΜ, LTK (TYK1) [15]: 3%
IC50 [16]: 12.2 µM
phosphor-MEK levels (western blot) [17]: suppressed phosphor-MEK levels in a concentration-dependent manner
Inhibition % at 1 μΜ, ErbB2 (HER2) [18]: −7%
phosphor-MEK levels (western blot) [19]: suppressed phosphor-MEK levels in a concentration-dependent manner
Inhibition % at 1 μΜ, AURKA (Aurora A) [20]: 17%
Inhibition % at 1 μΜ, LCK [21]: 20%
Inhibition % at 1 μΜ, AURKB (Aurora B) [22]: 42%
Inhibition % at 1 μΜ, ErbB4 (HER4) [23]: 7%
Inhibition % at 1 μΜ, RAF1 (CRAF) ([24]; 1 μΜ): 102%
IC50 ([24]; in parentheses in Table 4, read-out: C-RAF IC50): 0.0085 µM
Inhibition % at 1 μΜ, EPHA2 [25]: 2%
Inhibition % at 1 μΜ, ABL2 (Arg) [26]: 4%
melting point: 212.1 to 213 °C
IC50 at 48 h [27]: > 80 µM
IC50 [28]: 14.7 µM
